Experimental data: patent publication US20260125425A1, “Carrier Peptide Fragment and Use Thereof” (TOAGOSEI CO., LTD., priority 2022, published 2026)
Primed or numbered codes have the meaning given here. FAM″ = C-terminal FAM dye

System: HeLa cells
Assay: cell membrane permeability in HeLa cells by flow cytometer
Type: cell-based, human
Conditions: 20-hour incubation; for MFI (median fluorescence intensity): 10 µM in culture solution, 0.5% DMSO, 37° C., FL2 detector
Protocol: As the eukaryotic cells, HeLa cells (established cell strain derived from a human cervical cancer cell) were used and the cell membrane permeability of the sample 1 was evaluated. In Example 1, the prepared sample solution I was used, and in Example 12, the FAM solution was used.
The HeLa cell was cultured in 10% fetal bovine serum (FBS)-containing Dulbecco's modified Eagle's medium (DMEM (Cat No. 044-29765, manufactured by FUJIFILM Wako Pure Chemical Corporation)), which is a culture medium.
The HeLa cell that adhered to a culture plate was cleaned with PBS and then, a 0.25%-trypsin/EDTA solution was added thereto, and incubation was performed for three minutes at 37° C. After the incubation, the aforementioned 10% FBS-containing DMEM was added to deactivate trypsin and then, five-minute centrifugal separation was performed at 150×g to precipitate the cells. After the supernatant generated by the centrifugal separation was removed, the 10% FBS-containing DMEM was added to the precipitate (cell pellet) to prepare a cell suspension of about 2×10^5 cells/mL. The cell suspension was added by 1 mL to a well of a commercially available six-hole (well) plate (manufactured by AGC TECHNO GLASS Co., Ltd.) so as to seed the cell (about 2× 10^5 cells/well). In addition, the 2 mM sample solution 1 was diluted with the 10% FBS-containing DMEM to prepare the sample solution 1 in which the concentration of the sample 1 was 20 μM. […]
Regarding the obtained cells (cell pellet), the cell membrane permeability of the sample 1 was analyzed using a flow cytometer. […]
Using the aforementioned flow cytometer, gating based on forward scatter (FSC) and side scatter (SSC) was performed to set a gate about a cell group to be analyzed, and the fluorescence intensity was measured about the cell group in this gate. […] The fluorescence intensity was measured using a fluorescence detector FL2 of the flow cytometer (optimum detection wavelength around 543 nm) capable of detecting the fluorescence wavelength of FAM. […]

Substance | MFI (median fluorescence intensity) | flow cytometer histogram (FIG. 1), cell membrane permeability (10 µM, compared to FAM alone (Example 2))
5 (6)-carboxyfluorescein [Example 2, reference compound] | 10.6 | –
Ac-RKLAVYWSTYKRSR-FAM (Ac-RKLAVYWSTYKRSR-{FAM″}) [Example 1] | 14.5 | shifted to the right side compared to the histogram according to Example 2
